Results: patent US6057450A, “Derivatives of pyroglutaminic acid preparation process and applications” (Totiam, S.L., priority 1994, dated 2000)

Assays:
human lymphocytes = experiment: in vitro non-specific lymphoproliferative response (RLP-I) to PHA, human lymphocyte cultures; assay type: cell-based; settings: for RLP-I B < A, number of witness models / RLP-I B < A, percentage of witness models / RLP-I B > A, number of witness models / RLP-I B > A, percentage of witness models: Table V, PHA + BRM-BLAS (B) versus PHA (A); for number of cases with RLP-I B > A in 67% of the witness models / percentage of cases with RLP-I B > A in 33-50% of the witness models / percentage of cases with RLP-I B > A in 67% of the witness models / number of cases with RLP-I B > A in 33-50% of the witness models / number of cases with RLP-I B > A in 100% of the witness models / percentage of cases with RLP-I B > A in 100% of the witness models: Table VI, intragroup individual analysis
Description: The "in vitro" lymphocyte response has been assessed in samples of circulating and peripheral venous blood from asymptomatic blood donor adults of both sexes. In general, the lymphocyte cultures include in each case six experimental models called witnesses, and incorporate progressive doses between 0.25-6.0 units (20-500 ng) of the BRM-BLAS compounds and PHA. The RLP-I of each one has been morphologically determined and is expressed in absolute values of lymphoblasts/10,000.
Systematically, in all the cases it has been tabulated the RLP-I to the PHA, basal, of the PHA models; to the PHA+BRM-BLAS, of the "witness" models and the maximum individual response of the witness models (RMC), in each case.

Swiss mice = experiment: single-dose intraperitoneal toxicity in mice; settings: i.p. single dose; 236 (Cl) 800 mcg/Kg, 278 (Ac) 4.2 mg/Kg, 320 (Ac) 4.8 mg/Kg, respectively
[1] = tested on: circulating peripheral blood lymphocytes; experiment: in vivo lymphocyte kinetics / response in asymptomatic rabbits; design: species or system New Zealand's albino, giant rabbits
Description: (§1) The pharmacodynamic study to assess the leuko-lymphocyte kinetics has been carried out in New Zealand's albino, giant, female, adult, asymptomatic (healthy) rabbits. The blood samples with EDTA (ethylene-diamino-tetraAcetic acid), non-coagulable, for the periodical weekly controls, have been obtained by aseptic puncture from the marginal vein of the outer ear. The count and the differential cytologic survey of the white series has been routinely performed in a "Coulter" (Coulter Cientifica, S.A., STKs model) differential analyzer, within the two hours following the extraction.
Hereinafter, there is a summary of the most significant results of the preclinical protocols which include different experimental conditions, different BRM-BLAS products and doses which vary in vary of their concentration of the product, frequency and number. […]
This study comprises three concatenated experimental situations. The first one is focused on the vicissitudes of the leuko-lymphocyte kinetics occurred during a pause, "first" moment, that takes place months after several doses, mainly of BRM-BLAS 236 (Cl) compounds and includes 30 individual assessments (6 of the group) days 0 to 39. The second "second" moment, is centered on the successive changes occurred after the administration on the 39th day of an intravenous dose of 8 u/Kg (0.6 mcg/Kg) of the BRM-BLAS 278 (Ac) compounds and includes a total of 25 individual assessments (5 of the group), days 43rd to 68th. The third one, moments "third" to "seventh", analyzes the changes induced after the intravenous administration on the 68th day of 22 u/Kg (1.8 mcg/Kg) of BRM-BLAS 320 (Ac) compounds and includes […] (6 of the group×5 times), days 75th to 287th of the study. The assessment prior to the last dose, the lymphocyte average of which is the lowest of the group during the study, has been selected as the common baseline (100%) for reference of the comparative analysis between the assessments.

[2] = tested on: circulating peripheral blood leukocytes; experiment: in vivo leukocyte kinetics / response in asymptomatic rabbits; design: species or system New Zealand's albino, giant rabbits; settings: s.c. 30 u/Kg
Description: as §1
Hereinafter, there is a summary of the most significant results of the preclinical protocols which include different experimental conditions, different BRM-BLAS products and doses which vary in vary of their concentration of the product, frequency and number.
The leuko-lymphocyte mean values of the group run parallelly during the study, in general above the respective basal values before the treatment to which they return in the last two assessments. They reach the higher ones 7, 16 and 20 days after the first, second and third dose, FIG. 12, FIG. 13 and Table VIII (assessments: 3, 8 and 13).
A total number of 225 individual assessments and 45 of the group assessments have been performed, grouped in four evolutive periods moments. The "first" one includes the 40 individual assessments (8 of the group) after the two first doses, days 0 to 43rd; the "second", the 85 (17 of the group) after the third, fourth and fifth doses, days 46th to 147th; the "third", the first 50 (10 of the group) after the sixth, days 153rd to 213th, and the "fourth", the last 50 (10 of the group), days 220th to 282nd, respectively. The assessment of the group prior to the third dose (43rd day), the lymphocyte mean of which has been the lowest during the survey, has been taken as the natural reference baseline for the comparative analysis of punctual and grouped data.
This trail is subsequent to the protocol previously described and corresponds to the "fifth" moment of the global study, FIG. 14 and FIG. 15.
After the subcutaneous administration of a dose of 30 u/Kg (2.1 mcg/Kg) of the BRM-BLAS 278 (Cl) compounds 137 days after the sixth dose of the BRM-BLAS 320 (Ac) compounds, in the presence of high figures of the lymphocyte mean of the group, at the "fourth" moment, such figures were specifically exceeded by the 4th and 5th punctual weekly assessments of the "fifth" moment, 24th (184%) and 31st (180%) days, respectively, FIG. 14. Globally, 28% of the assessment exceed basal values by one or two standard deviations; 57% in three, and the difference is statistically in all of them. The resulting mean of the data gathered for the "fifth" moment with a 158% of the basal values, exceed those of the four previous moments, and the difference is statistically significant compared with those of the "first", "second" and "third", and exceeds that of the "first" in more than one standard deviation, FIG. 15 and (Table IX). […]

patients = settings: cited from earlier work; for effect on circulating granulocytes: cancer patients in the absence of a myelodepression

## NC1(C[n+]2ccccc2)CC(C(=O)O)NC1=O (centres unmarked) [BRM-BLAS 236 (Ac), 4-amino-4-(1-pyridiniomethyl) pyroglutamic acid acetate]
Human lymphocytes; acetate
  RLP-I B < A, number of witness models: 17 Num.
  RLP-I B < A, percentage of witness models: 19%
  RLP-I B > A, number of witness models: 73 Num.
  RLP-I B > A, percentage of witness models: 81%
  number of cases with RLP-I B > A in 33-50% of the witness models: 15 Num.
  number of cases with RLP-I B > A in 100% of the witness models: 6 Num.
  percentage of cases with RLP-I B > A in 100% of the witness models: 40%
Human lymphocytes
  number of cases with RLP-I B > A in 67% of the witness models: 12 Num.
  percentage of cases with RLP-I B > A in 33-50% of the witness models: 100%
  percentage of cases with RLP-I B > A in 67% of the witness models: 82%

## CC(=O)N1C(=O)C(N)(C[n+]2ccccc2)CC1C(=O)O (centres unmarked) [BRM-BLAS 278 (Ac), 1-acetyl-4-amino-4-(1-pyridiniomethyl) pyroglutamic acid acetate]
Human lymphocytes
  RLP-I B < A, number of witness models: 14 Num.
  RLP-I B < A, percentage of witness models: 26%
  RLP-I B > A, number of witness models: 40 Num.
  RLP-I B > A, percentage of witness models: 74%
  number of cases with RLP-I B > A in 33-50% of the witness models: 9 Num.
  number of cases with RLP-I B > A in 67% of the witness models: 6 Num.
  number of cases with RLP-I B > A in 100% of the witness models: 3 Num.
  percentage of cases with RLP-I B > A in 33-50% of the witness models: 100%
  percentage of cases with RLP-I B > A in 67% of the witness models: 67%
  percentage of cases with RLP-I B > A in 100% of the witness models: 33%
Swiss mice
  tolerance / toxicity, single dose: perfectly tolerated without evidences of toxicity
[1]; single i.v. low dose 8 u/Kg (0.6 mcg/Kg), fifth assessment
  lymphocyte group mean after low dose: the group mean in the fifth assessment appears in the basal line of the histogram

## CC(=O)N1C(=O)C(N)(C[n+]2ccccc2)CC1C(=O)O (centres unmarked) [BRM-BLAS 278 (Cl), 1-acetyl-4-ammonium-4-(1-pyridiniomethyl) pyroglutamic acid dichloride]
[2]
  animals with leukocyte mean at "fifth" exceeding "first" moment by more than two standard deviations: 40%
[2]; "fifth" moment
  assessments with leukocyte mean exceeding basal by one standard deviation: 57%
  assessments with statistically significant leukocyte difference: 29%
Human lymphocytes
  RLP-I B < A, number of witness models: 16 Num.
  RLP-I B < A, percentage of witness models: 17%
  RLP-I B > A, number of witness models: 77 Num.
  RLP-I B > A, percentage of witness models: 83%
  number of cases with RLP-I B > A in 33-50% of the witness models: 16 Num.
  number of cases with RLP-I B > A in 67% of the witness models: 13 Num.
  number of cases with RLP-I B > A in 100% of the witness models: 6 Num.
  percentage of cases with RLP-I B > A in 33-50% of the witness models: 100%
  percentage of cases with RLP-I B > A in 67% of the witness models: 81%
  percentage of cases with RLP-I B > A in 100% of the witness models: 37%
[1]; s.c. 30 u/Kg
  animals with lymphocyte mean "fifth" versus "first" moment higher than three standard deviations: 80%
  animals with lymphocyte mean "fifth" versus "first" moment higher than two standard deviations: 20%
[1]; s.c. 30 u/Kg, "fifth" moment
  grouped lymphocyte mean versus basal, "fifth" moment: 158%
[1]; s.c. dose 30 u/Kg (2.1 mcg/Kg) 137 days after BRM-BLAS 320 (Ac), 24th day, "fifth" moment
  lymphocyte mean versus basal, 24th day: 184%
[1]; s.c. dose 30 u/Kg (2.1 mcg/Kg) 137 days after BRM-BLAS 320 (Ac), 31st day, "fifth" moment
  lymphocyte mean versus basal, 31st day: 180%

## CC(=O)NC1(C[n+]2ccccc2)CC(C(=O)O)N(C(C)=O)C1=O (centres unmarked) [BRM-BLAS 320 (Cl), 1-acetyl-4-acetylamino-4-(1-pyridiniomethyl) pyroglutamic acid chloride]
Human lymphocytes
  RLP-I B < A, number of witness models: 29 Num.
  RLP-I B < A, percentage of witness models: 30%
  RLP-I B > A, number of witness models: 67 Num.
  RLP-I B > A, percentage of witness models: 70%
  number of cases with RLP-I B > A in 33-50% of the witness models: 16 Num.
  number of cases with RLP-I B > A in 67% of the witness models: 11 Num.
  number of cases with RLP-I B > A in 100% of the witness models: 2 Num.
  percentage of cases with RLP-I B > A in 33-50% of the witness models: 100%
  percentage of cases with RLP-I B > A in 67% of the witness models: 69%
  percentage of cases with RLP-I B > A in 100% of the witness models: 13%

## rhMG-CSF: recombinant human Macrophage Granulocyte Colony Stimulating Factor
patients; administration prior to chemotherapy
  duration of the neutropenia: notably reduces the duration of the neutropenia
patients
  effect on circulating granulocytes: neutrophiles and eosinophile
patients; human, in vivo
  side effects: fever, bone ache, pericarditis, hypotension
patients; patients who received rhMG-CSF
  deaths from sepsis: 2 out of 14
patients; severe chronic neutropenia or after transplant of bone marrow
  systemic bacterial and viral infections: drastically decreases systemic bacterial and viral infections

B1: rhG-CSF: recombinant human Granulocyte Colony Stimulating Factor (protein, UniProt P09919 31-207, looked up)
Granulocyte …: TPLGPASSLPQSFLLKCLEQVRKIQGDGAALQEKLVSECATYKLCHPEELVLLGHSLGIPWAPLSSCPSQALQLAGCLSQLHSGLFLYQGLLQALEGISPELGPTLDTLQLDVADFATTIWQQMEELGMAPALQPTQGAMPAFASAFQRRAGGVLVASHLQSFLEVSYRVLRHLAQP
patients
  effect on circulating granulocytes: great increase in the number of circulating (peripheral blood) polymorphonuclear neutrophile
